From US20220204473A1, “COMPOUND AS IRAK INHIBITOR” (SHANGHAI MEIYUE BIOTECH DEVELOPMENT CO., LTD., priority 2018, published 2022) come the findings set out here.

The target of one series is T1, human IRAK4 (Homo sapiens, UniProt Q9NWZ3).
T1 construct: purchased Cama (so in the source)
T1 sequence (Q9NWZ3 1-460): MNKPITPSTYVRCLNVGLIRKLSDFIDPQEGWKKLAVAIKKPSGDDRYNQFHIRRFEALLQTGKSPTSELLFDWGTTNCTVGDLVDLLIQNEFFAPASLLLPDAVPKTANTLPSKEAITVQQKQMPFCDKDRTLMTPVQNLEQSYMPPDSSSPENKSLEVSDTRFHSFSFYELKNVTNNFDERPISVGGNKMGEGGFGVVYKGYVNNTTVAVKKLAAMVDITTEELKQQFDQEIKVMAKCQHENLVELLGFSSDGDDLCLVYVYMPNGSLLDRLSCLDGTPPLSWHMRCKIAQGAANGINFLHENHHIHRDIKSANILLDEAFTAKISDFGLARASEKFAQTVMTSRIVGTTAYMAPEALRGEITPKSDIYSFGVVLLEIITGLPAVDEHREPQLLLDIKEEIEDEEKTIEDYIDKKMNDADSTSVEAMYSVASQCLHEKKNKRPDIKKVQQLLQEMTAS
The series is described as follows: IRAK4 MSA (Mobility-Shift Assay) at Km ATP. The series is classed as biochemical. The settings on record: GST-IRAK4 1 nM, ATP 37 μM (Km); read-out: IC50 for inhibiting human IRAK4 kinase. On the procedure: A recombinant fusion protein of N-terminal GST (glutathione-S-transferase) and human IRAK4 was used as enzyme (GST-IRAK4, kinase IRAK4 (Cama)) at a final concentration of 1 nM; ATP (Sigma) was at a final concentration of 37 μM; the substrates used for the kinase reaction were a 5-FAM (5-carboxyfluorescein)-labeled polypeptide (5-FAM-[…]-COOH) and a substrate peptide FAM-P8 (GL Biochem) at final concentrations of […].
In this assay, 500 μM solutions of the compounds were prepared in 100% DMSO, and serially 4-fold diluted to the 10th concentration gradient with 100% DMSO, followed by a 10-fold dilution in the compound buffer (50 mM HEPES. pH 7.5, 0.00015% Brij-35) to give intermediate dilutions of the compounds at a final concentration of 10 μM-0.04 nM containing 10% DMSO respectively, 5 μL of the dilutions were transferred into a black 384-well plate respectively.
IRAK4 was diluted to 2.5 nM in the kinase buffer (50 mM HEPES, pH 7.5, 0.00015% Brij-35, 2 mM DTT). 10 μL of the IRAK4 dilution was transferred to the 384-well plate and co-incubated with the compound for 10-15 min.
The substrate and ATP were diluted to 12.5 μM and 92.5 μM with reaction buffer (50 mM HEPES, pH 7.5, 0.00015% Brij-35, 10 mM MgCl2), respectively. 10 μL of the dilutions were transferred to a 384-well plate and incubated at 28° C. for 1 h respectively. The reaction was terminated by adding 25 μL of 50 mM EDTA to the 384-well plate.
The inhibition rates of IRAK4 by the compounds were calculated by measuring the rate of phosphorylated substrate using a Caliper EZ Reader (PerkinElmer) and the IC50 values were calculated by XL-fit software.

The subject of series [1] is TNF-α release in LPS-induced Balb/c female mice. The series is described as follows: Inhibition of TNF-α release in LPS-induced Balb/c female mice. The settings on record: oral gavage 5 h before LPS induction, serum 1.5 h after stimulation. The series is classed as in vivo, mouse. Also on record: concentration or dose not given beside the values. As for the experimental part:
In the normal control groups, the animals received an intraperitoneal injection of normal saline (10 mL/kg) and in the model groups, the animals received LPS stimulation (Sigma CAT #L2630, i.p., 10 mL/kg, 0.2 mg/kg). During the assay, to the test compounds, DMSO, Solutol and 10 mM PBS were sequentially added to prepare a solution or suspension of required concentration for administration. For the vehicle, DMSO, Solutol and 10 mM PBS were mixed in a volume ratio of 5:15:80. In each of the groups, the animals were administered through oral gavage (10 mL/kg) 5 h before LPS (or saline) stimulation at predetermined doses, and euthanized with CO2 at 1.5 h after the stimulation for cardiac blood collection. The whole blood was not anticoagulated, incubated in wet ice for 1.5 h, and centrifuged at 2000×g at 4° C. for 10 min to separate the serum. The serum was frozen at −80° C. for TNF-α assay. Quantification of the TNF-α was done with TNF-α ELISA kit according to the manufacturer's instruction.

Series [2] is described as follows: PK assay in rat (intravenous injection and oral gavage). The class given is in vivo. The settings on record: plasma, male SD rat; for Cmax: read-out: Peak concentration Cmax; for AUC(0-t): read-out: Area under curve AUC0-t; for AUC(0-inf): read-out: Area under curve AUC0-∞; for MRT: read-out: Average retention time MRT; for half-life: read-out: Half life t1/2 (converted). As for the experimental part:
The rats used for pharmacokinetic study in the example were male SPF-grade SD rats (B&K Universal, Shanghai).
Route of administration: a single dose by oral gavage or intravenous injection
Sampling points: 0.083 h, 0.25 h, 0.5 h, 1 h, 2 h, 4 h, 6 h, 8 h and 24 h after administration
Sample processing: 0.2 mL of venous blood was collected, and let stand on ice before centrifugation to separate plasma (centrifugation conditions: 8000 rpm, 6 min, 4° C.). The separated plasma was stored at −80° C. before analysis.
Internal standard working solution: An appropriate amount of tolbutamide internal standard stock solution at 645,000 ng/mL was added into a volumetric flask, and was diluted to the volume with methanol. The solution was well mixed to give an internal standard working solution with a concentration of 50 ng/mL.
Sample pretreatment: 50 μL of plasma was added into a 1.5-mL centrifuge tube, and added with 250 μL of internal standard solution (methanol of the same volume for the blank control). The solution was well mixed by vortex, and centrifuged for 5 min at 14000 rpm. 200 μL of the supernatant was transferred into a 96-well sample feeding plate, and loaded onto a LC-MS/MS system.
Column: ACQUITY UPLC BEH C18 1.7 μm (50 mm×2.10 mm)
Mobile phase: A: 0.1% aqueous formic acid; B: 0.1% formic acid in acetonitrile
The data processing system was Analyst software (Applied Biosystems, USA, ver 1.5.5).

[3] abbreviates: 1 mg/kg, intravenous injection, 1 mpk.
[4] abbreviates: 2 mg/kg, oral administration, 2 mpk, 5% DMSO + 15% Solutol + 80% Saline.

Molecules are shown by their SMILES. Read-outs that look alike come from different tables or passages of the source.

The term IC50 denotes the point on the concentration scale where inhibition reaches its midpoint. On to `COc1cc2nn([C@H]3C[C@@H](C(C)(C)O)C3)cc2cc1NC(=O)c1cccc(C(F)(F)F)n1` [MY-004-040], for which, at human IRAK4, the IC50 worked out at 13 nM. For the compound `COc1cc2nn(C3CC(O)C3)cc2cc1NC(=O)c1cccc(C(F)(F)F)n1` (centres unmarked) [MY-004-084], the IC50 at human IRAK4 was 9.5 nM.

For the compound `COc1cc2nn([C@H]3C[C@@H](C(=O)OC)C3)cc2cc1NC(=O)c1cccc(C(F)(F)F)n1` [MY-004-099], the IC50 at human IRAK4 amounted to 35 nM. For the compound `COc1cc2nn([C@H]3C[C@H](C(C)(C)O)C3)cc2cc1NC(=O)c1cccc(F)n1` [MY-004-119], at human IRAK4, the IC50 was 14 nM. With `COc1cc2nn(C3CC(OC)C3)cc2cc1NC(=O)c1cccc(C(F)(F)F)n1` (centres unmarked) [MY-004-168], the IC50 on human IRAK4 was 6.3 nM. For the compound `COc1cc2nn([C@H]3C[C@H](C(C)(C)O)C3)cc2cc1NC(=O)c1cccc(C)n1` [MY-004-093], the IC50 on human IRAK4 is 13 nM. On to `C[C@]1(O)CC[C@H](n2cc3cc(NC(=O)c4cccc(C(F)(F)F)n4)c(-n4cccn4)cc3n2)CC1` [MY-004-228], for which the “Inhibition rate of TNF-α” value in series [1] is given as 88.46%. In addition, at human IRAK4, the IC50 is 2 nM. As a reminder, the MRT is a mean duration of stay, worked out from the concentration-time curve. Broadly, the bioavailability is dose-corrected exposure relative to a reference, in per cent. As a reminder, the Tmax is the time from dosing to the highest level. As to `COc1cc2nn([C@H]3C[C@H](CO)C3)cc2cc1NC(=O)c1cccc(C(F)(F)F)n1` [MY-004-082], on human IRAK4, the IC50 came out at 5 nM. For the same compound, the Cmax in series [2] (1 mg/kg, intravenous injection, 1 mpk, 5% DMSO + 15% Solutol + 80% Saline) was found to be 1320 ng/mL. For the same compound, in series [2] (setting [3]), the AUC(0-t) came to 790 ng·h/mL, the AUC(0-inf) was 793 ng·h/mL, the MRT turned out to be 31.2 min and the half-life is 30.6 min. The clearance in series [2] (1 mg/kg, intravenous injection, 1 mpk, read-out: Clearance CL) was determined as 21.9 mL/min/kg. In addition, the Vd in series [2] (1 mg/kg, intravenous injection, 1 mpk, read-out: Volume of distribution at steady state VZ) is 0.93 L/kg. Besides, in series [2] (setting [4]), the AUC(0-t) was determined as 416 ng·h/mL, the AUC(0-inf) was 424 ng·h/mL, the MRT stood at 161 min and the half-life was 65.4 min. For the same compound, the Cmax in series [2] (setting [4]) was determined as 114 ng/mL. The bioavailability in series [2] (2 mg/kg, oral administration, 2 mpk, 5% DMSO + 15% Solutol + 80% Saline, read-out: Bioavailability F) worked out at 26.3%. Moreover, in series [2] (2 mg/kg, oral administration, 2 mpk, 5% DMSO + 15% Solutol + 80% Saline, read-out: Time to peak tmax), the Tmax was determined as 30 min.

For the compound `O=C(Nc1cc2cn([C@H]3CC[C@H](O)CC3)nc2cc1OCC1CC1)c1cccc(C(F)(F)F)n1` [MY-004-217], the IC50 at human IRAK4 turned out to be 2.2 nM. Same read-out and setting: under `COc1cc2nn([C@H]3C[C@H](C(C)(C)O)C3)cc2cc1NC(=O)c1cnc2ccccc2n1` [MY-004-094] stands 41 nM.

Regarding `COc1cc2nn([C@H]3CC[C@@H](O)CC3)cc2cc1NC(=O)c1cccc(C(F)(F)F)n1` [MY-004-127-2], the IC50 on human IRAK4 was found to be 4.3 nM. Same read-out and setting: under `CN(C)c1cc2nn([C@H]3CC[C@](C)(O)CC3)cc2cc1NC(=O)c1cccc(C(F)(F)F)n1` [MY-004-167] stands 2.7 nM. Take `CN(C)c1cc2nn([C@H]3CC[C@@H](O)CC3)cc2cc1NC(=O)c1cccc(C(F)(F)F)n1` [MY-004-154]: the “Inhibition rate of TNF-α” value in series [1] was 87.82%. In addition, at human IRAK4, the IC50 was found to be 1.6 nM. As to `COc1cc2nn(C3CC(C)(O)C3)cc2cc1NC(=O)c1cccc(C(F)(F)F)n1` (centres unmarked) [MY-004-128], on human IRAK4, the IC50 was found to be 6.6 nM. With `CC(C)(O)c1cc2nn([C@H]3CC[C@H](O)CC3)cc2cc1NC(=O)c1cccc(C(F)(F)F)n1` [MY-004-322], on human IRAK4, the IC50 was found to be 2.4 nM.

For `C[C@]1(O)CC[C@@H](n2cc3cc(NC(=O)c4cccc(C(F)(F)F)n4)c(-n4cccn4)cc3n2)CC1` [MY-004-227], at human IRAK4, the IC50 worked out at 1.7 nM. Still for that read-out and setting: then `CC(C)(O)c1cc2nn([C@H]3C[C@H](C(C)(C)O)C3)cc2cc1NC(=O)c1cccc(C#N)n1` [MY-004-110], with 48 nM; and `COc1cc2nn(C3CC(CO)C3)cc2cc1NC(=O)c1cccc(C(F)(F)F)n1` (centres unmarked) [MY-004-090], with 12.3 nM. `CC(C)(O)[C@H]1C[C@H](n2cc3cc(NC(=O)c4cccc(C(F)(F)F)n4)c(-n4cc(C#N)cn4)cc3n2)C1` [MY-004-229]: at human IRAK4, the IC50 turned out to be 8.4 nM.

Consider `COc1cc2nn(CCN3CC(F)(F)C3)cc2cc1NC(=O)c1cccc(C(F)(F)F)n1` [MY-004-017], for which the IC50 on human IRAK4 amounted to 36 nM.

Consider `COc1cc2nn([C@H]3C[C@H](C(=O)OC)C3)cc2cc1NC(=O)c1cccc(C(F)(F)F)n1` [MY-004-100], for which the IC50 on human IRAK4 came out at 11 nM. For `CC(C)(O)[C@H]1C[C@H](n2cc3cc(NC(=O)c4cccc(C(F)(F)F)n4)c(-c4ccccn4)cc3n2)C1` [MY-004-146], on human IRAK4, the half-maximal inhibitory concentration (IC50) amounted to 6.4 nM. As for `CN(C)c1cc2nn([C@H]3C[C@H](C(C)(C)O)C3)cc2cc1NC(=O)c1cccc(F)n1` [MY-004-118], the IC50 at human IRAK4 worked out at 16.7 nM. `CC(C)(O)c1cc2nn([C@H]3CC[C@@H](O)CC3)cc2cc1NC(=O)c1cccc(C(F)(F)F)n1` [MY-004-326]: the IC50 at human IRAK4 was 6.9 nM. Turning to `O=C(Nc1cc2cn([C@H]3CC[C@@H](O)CC3)nc2cc1OCC1CC1)c1cccc(C(F)(F)F)n1` [MY-004-218], the IC50 on human IRAK4 came to 5.1 nM.
